Source: US9284321B2, “Piperazino[1,2-a]indol-1-ones and [1,4]diazepino[1,2-a]indol-1-one” (Hoffmann-La Roche Inc., priority 2012, dated 2016)

Assays:
[1] = tested on: human embryonic stem cell derived neural stem cells (NSCs); assay: Neural Stem Cell Proliferation Assay (neurogenesis assay, ATP levels by CellTiterGlo); assay type: cell-based; conditions: 96 h, compound concentration at which 150% activity of control (100%) is reached, NSC proliferation by ATP level after 4 days incubation, dose response 8 μM to 8 nM
Protocol: Neurogenic properties of small molecules are determined based on the proliferation of human embryonic stem cell derived neural stem cells (NSCs) which were derived via a dual smad inhibition as previously described (Chambers, S. M., et al., Highly efficient neural conversion of human ES and iPS cells by dual inhibition of SMAD signaling, Nature biotechnology, 2009. 27(3): p. 275-80.)
Compounds respond is measured by the increase in cells based on ATP levels
(Promega:CellTiterGlo®) after an incubation period of 4 days.
NSCs are thawed and expanded over 3 passages. On the 14th day, NSCs are seeded in Polyornithin/Laminin coated 384 well plates at a cell density of 21′000 cells/cm^2 in a media volume of 38 μl.
4 hours after cell seeding, compound solutions are added at a volume of 2 μl. Stock solutions of the compounds (water, 5% DMSO) are diluted to obtain a dose response (11 points, dilution factor is 2), ranging from 8 μM to 8 nM. Controls are run to consistently determine the neurogenic properties of the cells:
Negative (neutral) control is cell culture Media (final DMSO concentration: 0.25%).
• 1. cell culture Media+100 ng/ml FGF2 (final DMSO concentration: 0.1%) • 2. cell culture Media+20 ng/ml EGF (final DMSO concentration: 0.1%) • 3. cell culture Media+100 ng/ml Wnt3a (final DMSO concentration: 0.1%)
After 4 days incubation at 37° C., 5% CO2, the amount of ATP per well is quantified. The ATP concentration is proportional to the cell number. ATP is quantified by using the Promega CellTiterGlo® kit. The CellTiterGlo® reagents contain a cell lysis buffer, a thermo stable luciferase (UltraGlo™ recombinant luciferase), magnesium and luciferin. Luciferin reacts with ATP producing oxyluciferin, AMP and light. The luminescence signal is proportional to the ATP content.
The value of negative (neutral) control is determined for each assay plate by taking the average of 16 negative control wells. The neurogenic compound response is calculated for each compound as (compound/Negative Control)*100.
The values of EC150 from the dose response curve are determined for each test compound. The EC150 is the compound concentration at which 150% activity of control (100%) is reached.

SMILES | EC (150% of control) [1] [µM] | melting point [°C]
CC1CCNC(=O)c2cc3cc(F)cc(-c4ccccc4)c3n21 (racemic) [Example 26, (RS)-9-Fluoro-5-methyl-7-phenyl-2,3,4,5-tetrahydro-[1,4]diazepino[1,2-a]indol-1-one] | 0.24 | 232.5
CC1CCNC(=O)c2cc3cc(F)cc(-c4ccc(F)cc4)c3n21 (racemic) [Example 27, (RS)-9-Fluoro-7-(4-fluoro-phenyl)-5-methyl-2,3,4,5-tetrahydro-[1,4]diazepino[1,2-a]indol-1-one] | 0.18 | 235.5
C[C@@H]1CNC(=O)c2cc3cccc(-c4ccccc4)c3n21 [Example 1, (R)-4-Methyl-6-phenyl-3,4-dihydro-2H-pyrazino[1,2-a]indol-1-one] | 3.97 | 239
COc1ccc(-c2cccc3cc4n(c23)[C@H](C)CNC4=O)cc1 [Example 2, (R)-6-(4-Methoxy-phenyl)-4-methyl-3,4-dihydro-2H-pyrazino[1,2-a]indol-1-one] | 0.85 | 247
C[C@@H]1CNC(=O)c2cc3cccc(-c4ccncc4)c3n21 [Example 3, (R)-4-Methyl-6-pyridin-4-yl-3,4-dihydro-2H-pyrazino[1,2-a]indol-1-one] | 2.31 | 264
C[C@@H]1CNC(=O)c2cc3cc(F)cc(-c4ccccc4)c3n21 [Example 4, (R)-8-Fluoro-4-methyl-6-phenyl-3,4-dihydro-2H-pyrazino[1,2-a]indol-1-one] | 0.37 | 243.5
COc1ccc(-c2cc(F)cc3cc4n(c23)[C@H](C)CNC4=O)cc1 [Example 5, (R)-8-Fluoro-6-(4-methoxy-phenyl)-4-methyl-3,4-dihydro-2H-pyrazino[1,2-a]indol-1-one] | 0.034 | 228.5
C[C@@H]1CNC(=O)c2cc3cc(F)cc(-c4ccc(F)cc4)c3n21 [Example 6, (R)-8-Fluoro-6-(4-fluoro-phenyl)-4-methyl-3,4-dihydro-2H-pyrazino[1,2-a]indol-1-one] | 0.22 | 276
C[C@@H]1CNC(=O)c2cc3cc(F)cc(-c4ccncc4)c3n21 [Example 7, (R)-8-Fluoro-4-methyl-6-pyridin-4-yl-3,4-dihydro-2H-pyrazino[1,2-a]indol-1-one] | 0.4 | 294.5
Cc1ccc(-c2cc(F)cc3cc4n(c23)[C@H](C)CNC4=O)cc1 [Example 8, (R)-8-Fluoro-4-methyl-6-p-tolyl-3,4-dihydro-2H-pyrazino[1,2-a]indol-1-one] | 0.048 | 294.5
C[C@@H]1CNC(=O)c2cc3cc(F)cc(-c4cc(F)cc(F)c4)c3n21 [Example 9, (R)-6-(3,5-Difluoro-phenyl)-8-fluoro-4-methyl-3,4-dihydro-2H-pyrazino[1,2-a]indol-1-one] | 0.37 | 229.5
C[C@@H]1CNC(=O)c2cc3cc(F)cc(-c4ccc(F)c(F)c4)c3n21 [Example 10, (R)-6-(3,4-Difluoro-phenyl)-8-fluoro-4-methyl-3,4-dihydro-2H-pyrazino[1,2-a]indol-1-one] | 0.22 | 267
C[C@@H]1CNC(=O)c2cc3cc(F)cc(-c4ccc(Cl)cc4)c3n21 [Example 11, (R)-6-(4-Chloro-phenyl)-8-fluoro-4-methyl-3,4-dihydro-2H-pyrazino[1,2-a]indol-1-one] | 0.1 | 282.5
O=C1NCCn2c1cc1cc(F)cc(-c3ccccc3)c12 [Example 12, 8-Fluoro-6-phenyl-3,4-dihydro-2H-pyrazino[1,2-a]indol-1-one] | 0.037 | 236.5
C[C@@H]1CNC(=O)c2cc3cc(F)cc(-c4ccc(C(F)(F)F)cc4)c3n21 [Example 13, (R)-8-Fluoro-4-methyl-6-(4-trifluoromethyl-phenyl)-3,4-dihydro-2H-pyrazino[1,2-a]indol-1-one] | 0.16 | 307
C[C@@H]1CNC(=O)c2cc3cc(F)cc(-c4cccc(F)c4)c3n21 [Example 14, (R)-8-Fluoro-6-(3-fluoro-phenyl)-4-methyl-3,4-dihydro-2H-pyrazino[1,2-a]indol-1-one] | 0.34 | 232

SMILES | EC (150% of control) [1] [µM] | melting point [°C]
O=C1NCCCn2c1cc1cc(F)cc(-c3ccccc3)c12 [Example 15, 9-Fluoro-7-phenyl-2,3,4,5-tetrahydro-[1,4]diazepino[1,2-a]indol-1-one] | 0.084 | 277
COc1ccc(-c2cc(F)cc3cc4n(c23)CCCNC4=O)cc1 [Example 16, 9-Fluoro-7-(4-methoxy-phenyl)-2,3,4,5-tetrahydro-[1,4]diazepino[1,2-a]indol-1-one] | 0.009 | 225.5
O=C1NCCCn2c1cc1cc(F)cc(-c3ccc(F)cc3)c12 [Example 17, 9-Fluoro-7-(4-fluoro-phenyl)-2,3,4,5-tetrahydro-[1,4]diazepino[1,2-a]indol-1-one] | 0.05 | 239.5
O=C1NCCn2c1cc1cc(F)cc(-c3ccc(F)cc3)c12 [Example 18, 8-Fluoro-6-(4-fluoro-phenyl)-3,4-dihydro-2H-pyrazino[1,2-a]indol-1-one] | 0.026 | 304
Cc1c2n(c3c(-c4ccc(Cl)nc4)cc(F)cc13)CCNC2=O [Example 144, 6-(6-Chloro-pyridin-3-yl)-8-fluoro-10-methyl-3,4-dihydro-2H-pyrazino[1,2-a]indol-1-one] | 0.081 | –
N#Cc1cc(-c2ccc(Cl)c(C(F)(F)F)c2)c2c(c1)cc1n2CCCNC1=O [Example 254, 7-[4-Chloro-3-(trifluoromethyl)phenyl]-1-oxo-2,3,4,5-tetrahydro-[1,4]diazepino[1,2-a]indole-9-carbonitrile] | – | 224.5
N#Cc1cc(-c2cccnc2)c2c(c1)cc1n2CCCNC1=O [Example 263, 1-Oxo-7-pyridin-3-yl-2,3,4,5-tetrahydro-[1,4]diazepino[1,2-a]indole-9-carbonitrile] | – | 252
N#Cc1cc(-c2ccc(N)nc2)c2c(c1)cc1n2CCCNC1=O [Example 264, 7-(6-Aminopyridin-3-yl)-1-oxo-2,3,4,5-tetrahydro-[1,4]diazepino[1,2-a]indole-9-carbonitrile] | – | 314.5
N#Cc1cc(-c2ccc(Cl)nc2)c2c(c1)cc1n2CCCNC1=O [Example 265, 7-(6-Chloropyridin-3-yl)-1-oxo-2,3,4,5-tetrahydro-[1,4]diazepino[1,2-a]indole-9-carbonitrile] | – | 204
Cc1c2n(c3c(-c4cccc(Cl)c4)cc(C#N)cc13)CCNC2=O [Example 268, 6-(3-Chlorophenyl)-10-methyl-1-oxo-3,4-dihydro-2H-pyrazino[1,2-a]indole-8-carbonitrile] | – | 254
CC(C)(C)c1ccc(-c2cc(C#N)cc3cc4n(c23)CCCNC4=O)cc1 [Example 270, 7-(4-tert-Butylphenyl)-1-oxo-2,3,4,5-tetrahydro-[1,4]diazepino[1,2-a]indole-9-carbonitrile] | – | 215
N#Cc1cc(-c2ccc(F)nc2)c2c(c1)cc1n2CCCNC1=O [Example 272, 7-(6-Fluoropyridin-3-yl)-1-oxo-2,3,4,5-tetrahydro-[1,4]diazepino[1,2-a]indole-9-carbonitrile] | – | 264.5
N#Cc1cc(-c2cncnc2)c2c(c1)cc1n2CCCNC1=O [Example 273, 1-Oxo-7-pyrimidin-5-yl-2,3,4,5-tetrahydro-[1,4]diazepino[1,2-a]indole-9-carbonitrile] | – | 277
N#Cc1cc(-c2cc(Cl)cc(Cl)c2)c2c(c1)cc1n2CCCNC1=O [Example 286, 7-(3,5-Dichlorophenyl)-1-oxo-2,3,4,5-tetrahydro-[1,4]diazepino[1,2-a]indole-9-carbonitrile] | – | 244
Cc1c2n(c3c(-c4cc(Cl)cc(Cl)c4)cc(C#N)cc13)CCNC2=O [Example 293, 6-(3,5-Dichlorophenyl)-10-methyl-1-oxo-3,4-dihydro-2H-pyrazino[1,2-a]indole-8-carbonitrile] | – | 347
Cc1c2n(c3c(-c4cncnc4)cc(C#N)cc13)CCCNC2=O [Example 299, 11-Methyl-1-oxo-7-pyrimidin-5-yl-2,3,4,5-tetrahydro-[1,4]diazepino[1,2-a]indole-9-carbonitrile] | – | 304
